Measured values reported in US20060052314A1, “Pharmaceutical combination” (priority 2002, published 2006).
pIC50: −log10 of the molar value. Structures can show the parent of a compound that is named as a salt.

Key:
[1] = Test G: conversion to active inhibitor in liver microsomes from rats; assay type: in vitro ADME
Method: (§1) By “prodrug of a thrombin inhibitor”, we include compounds that form a thrombin inhibitor, in an experimentally-detectable amount, and within a predetermined time (e.g. about 1 hour), following oral or parenteral administration (see, for example, Test E below) or, alternatively, following incubation in the presence of liver microsomes (see, for example, Test G below).

[2] = Test G: conversion to active inhibitor in liver microsomes from humans; assay type: in vitro ADME
Method: as §1

thrombin = thrombin (Homo sapiens, UniProt P00734); test: Test A: IC50TT; assay type: biochemical

Compound | melting point [°C] | conversion to the corresponding active inhibitor (free amidine) [1] | conversion to the corresponding active inhibitor (free amidine) [2] | pIC50 (thrombin)
N=C(N)c1cnc(CNC(=O)[C@@H]2CCN2C(=O)[C@H](O)c2cc(Cl)cc(OC(F)F)c2)nc1 (as salt: TFA) [Example 36, Ph(3-Cl)(5-OCHF2)—(R)CH(OH)C(O)-Aze-NH—CH2-((5-amidino)-2-pyrimidinyl)] | 86 to 87 |  |  | 
NC(=NO)c1ccc(CNC(=O)[C@@H]2CCN2C(=O)[C@H](O)c2cc(Cl)cc(OC(F)F)c2)cc1 [Example 2, Ph(3-Cl)(5-OCHF2)—(R)CH(OH)C(O)-Aze-Pab(OH)] |  | converted to the corresponding active inhibitor (free amidine) | converted to the corresponding active inhibitor (free amidine) | 
CON=C(N)c1ccc(CNC(=O)[C@@H]2CCN2C(=O)[C@H](O)c2cc(Cl)cc(OC(F)(F)F)c2)cc1 [Example 7, Ph(3-Cl)(5-OCF3)—(R)CH(OH)C(O)-Aze-Pab(OMe)] |  | converted to the corresponding active inhibitor (free amidine) | converted to the corresponding active inhibitor (free amidine) | 
CON=C(N)c1ccc(CNC(=O)[C@@H]2CCN2C(=O)[C@H](CO)c2cc(Cl)cc(OC(F)(F)F)c2)cc1 [Example 11, Ph(3-Cl)(5-OCF3)—(S)CH(CH2OH)C(O)-Aze-Pab(OMe)] |  | converted to the corresponding active inhibitor (free amidine) | converted to the corresponding active inhibitor (free amidine) | 
CON=C(N)c1ccc(CNC(=O)[C@@H]2CCN2C(=O)[C@H](O)c2cc(Cl)cc(OC(F)F)c2)cc1 [Example 12, Ph(3-Cl)(5-OCHF2)—(R)CH(OH)C(O)-Aze-Pab(OMe)] |  | converted to the corresponding active inhibitor (free amidine) | converted to the corresponding active inhibitor (free amidine) | 
CON=C(N)c1ccc(CNC(=O)[C@@H]2CCN2C(=O)[C@H](O)c2cc(Cl)cc(OCC(F)(F)F)c2)cc1 [Example 16, Ph(3-Cl)(5-OCH2CF3)—(R)CH(OH)C(O)-Aze-Pab(OMe)] |  | converted to the corresponding active inhibitor (free amidine) | converted to the corresponding active inhibitor (free amidine) | 
CON=C(N)c1ccc(CNC(=O)[C@@H]2CCN2C(=O)[C@H](O)c2cc(Cl)cc(OCC(F)F)c2)cc1 [Example 18, Ph(3-Cl)(5-OCH2CHF2)—(R)CH(OH)C(O)-Aze-Pab(OMe)] |  | converted to the corresponding active inhibitor (free amidine) | converted to the corresponding active inhibitor (free amidine) | 
CON=C(N)c1ccc(CNC(=O)[C@@H]2CCN2C(=O)[C@H](O)c2cc(Cl)cc(OCF)c2)cc1 [Example 20, Ph(3-Cl)(5-OCH2F)—(R)CH(OH)C(O)-Aze-Pab(OMe)] |  | converted to the corresponding active inhibitor (free amidine) | converted to the corresponding active inhibitor (free amidine) | 
CON=C(N)c1ccc(CNC(=O)[C@@H]2CCN2C(=O)[C@H](O)c2cc(Cl)cc(OCCF)c2)cc1 [Example 22, Ph(3-Cl)(5-OCH2CH2F)—(R)CH(OH)C(O)-Aze-Pab(OMe)] |  | converted to the corresponding active inhibitor (free amidine) | converted to the corresponding active inhibitor (free amidine) | 
CON=C(N)c1ccc(CNC(=O)[C@@H]2CCN2C(=O)[C@H](O)c2cc(Cl)cc(OC(CF)CF)c2)cc1 [Example 24, Ph(3-Cl)(5-OCH(CH2F)2)—(R)CH(OH)C(O)-Aze-Pab(OMe)] |  | converted to the corresponding active inhibitor (free amidine) | converted to the corresponding active inhibitor (free amidine) | 
CON=C(N)c1ccc(CNC(=O)[C@@H]2CCN2C(=O)[C@H](O)c2cc(F)cc(OC(F)F)c2)cc1 [Example 26, Ph(3-F)(5-OCHF2)—(R)CH(OH)C(O)-Aze-Pab(OMe)] |  | converted to the corresponding active inhibitor (free amidine) | converted to the corresponding active inhibitor (free amidine) | 
CON=C(N)c1ccc(CNC(=O)[C@@H]2CCCN2C(=O)[C@H](O)c2cc(Cl)cc(OC(F)F)c2)cc1 [Example 33, Ph(3-Cl)(5-OCHF2)—(R)CH(OH)—C(O)-Pro-Pab(OMe)] |  | converted to the corresponding active inhibitor (free amidine) | converted to the corresponding active inhibitor (free amidine) | 
N=C(N)c1ccc(CNC(=O)[C@@H]2CCN2C(=O)[C@H](O)c2cc(Cl)cc(OC(F)F)c2)cn1 [Example 34, Ph(3-Cl)(5-OCHF2)—(R)CH(OH)C(O)-Aze-NH—CH2-((2-amidino)-5-pyridinyl)] |  |  |  | > 7.70
N=C(N)c1cnc(CNC(=O)[C@@H]2CCN2C(=O)[C@H](O)c2cc(Cl)cc(OC(F)F)c2)nc1 [Example 36, Ph(3-Cl)(5-OCHF2)—(R)CH(OH)C(O)-Aze-NH—CH2-((5-amidino)-2-pyrimidinyl)] |  |  |  | > 5.46
CO/N=C(\N)c1cnc(CNC(=O)[C@@H]2CCN2C(=O)[C@H](O)c2cc(Cl)cc(OC(F)F)c2)nc1 [Example 37, Ph(3-Cl)(5-OCHF2)—(R)CH(OH)C(O)-Aze-NH—CH2-((5-methoxyamidino)-2-pyrimidinyl)] |  | converted to the corresponding active inhibitor (free amidine) | converted to the corresponding active inhibitor (free amidine) | 
N=C(N)c1ccc(CNC(=O)[C@@H]2CCN2C(=O)[C@H](O)c2cc(Cl)cc(OC(F)F)c2)cc1F [Example 38, Ph(3-Cl)(5-OCHF2)—(R)CH(OH)C(O)-Aze-Pab(3-F)] |  |  |  | > 6.82
N=C(N)c1cc(F)c(CNC(=O)[C@@H]2CCN2C(=O)[C@H](O)c2cc(Cl)cc(OC(F)F)c2)c(F)c1 [Example 39, Ph(3-Cl)(5-OCHF2)—(R)CH(OH)C(O)-Aze-Pab(2.6-diF)] |  |  |  | > 7.70
CO/N=C(\N)c1cc(F)c(CNC(=O)[C@@H]2CCN2C(=O)[C@H](O)c2cc(Cl)cc(OC(F)F)c2)c(F)c1 [Example 40, Ph(3-Cl)(5-OCHF2)—(R)CH(OH)C(O)-Aze-Pab(2,6-diF)(OMe)] |  | converted to the corresponding active inhibitor (free amidine) | converted to the corresponding active inhibitor (free amidine) | 
N=C(N)c1cc(F)c(CNC(=O)[C@@H]2CCN2C(=O)[C@H](O)c2cc(Cl)cc(OC(F)F)c2)cc1F [Example 41, Ph(3-Cl)(5-OCHF2)—(R)CH(OH)C(O)-Aze-Pab(2,5-diF)] |  |  |  | > 6.82
CCON=C(N)c1ccc(CNC(=O)[C@@H]2CCN2C(=O)[C@H](O)c2cc(Cl)cc(OC(F)F)c2)cc1 [Example 43, Ph(3-Cl)(5-OCHF2)—(R)CH(OH)C(O)-Aze-Pab(OEt)] |  | converted to the corresponding active inhibitor (free amidine) | converted to the corresponding active inhibitor (free amidine) | 
CC(C)ON=C(N)c1ccc(CNC(=O)[C@@H]2CCN2C(=O)[C@H](O)c2cc(Cl)cc(OC(F)F)c2)cc1 [Example 45, Ph(3-Cl)(5-OCHF2)—(R)CH(OH)C(O)-Aze-Pab(OiPr)] |  | converted to the corresponding active inhibitor (free amidine) | converted to the corresponding active inhibitor (free amidine) | 
Ph(3-Br)(5-OCHF2)—(R)CH(OH)C(O)-Aze-Pab(OMe) [Example 29] |  | converted to the corresponding active inhibitor (free amidine) | converted to the corresponding active inhibitor (free amidine) | 
Ph(3-Cl)(5-OCHF2)—(R)CH(OH)C(O)-Aze-Pab(OcBu) [Example 1] |  | converted to the corresponding active inhibitor (free amidine) | converted to the corresponding active inhibitor (free amidine) | 
